In patent publication US7470442B2, “Confectionary compositions with magnolia bark extract” (GIC Innovations Company, priority 2005, dated 2008):
In brackets after ≈: the same amount, converted by molar mass.

Legend:
Type in all cases: cell-based
incubated saliva = experiment: MIC of surface active agents and emulsifiers on incubated saliva, two-fold serial dilution; settings: for MIC (ppm) / MIC: 24 hours at 37° C.; for germ-kill efficacy in words: summary of Table 9
Description: (§1) To evaluate the germ-kill efficacy and synergist effect when two or more germ-kill actives are combined, testing was performed to determine the ratio of MBE to surface active agent. The germ-kill active and/or surface active agent were dissolved in ethanol or sterile water to give an initial concentration 0.1% to 1%. The solution was diluted with a nutrient broth to give an initial concentration of 0.05% to 0.5%, which was then serially diluted two-fold so that each subsequent dilution contained 50% of the compound concentration of the previous dilution while maintaining a constant level of nutrients for each dilution. These dilutions were inoculated with representative oral microorganisms, or incubated saliva, and incubated for 24 hours at 37° C. For each surface active agent, the lowest dilution that was not turbid was registered as the MIC. The MBC was determined by transferring 10 microliter of liquid from non-turbid tubes to fresh growth media and incubated for 48 hours.

S. mutans [1] = experiment: MIC and fractional inhibitory index of combinations on S. mutans; settings: 24 hours at 37° C.
Description: as §1, with “hours. […] (1) where an FIC value of less than 1.0 is synergistic, an FIC between 1.0 and 2.0 is additive, and an FIC greater than 2.0 is antagonistic.” for “hours.”

S. mutans biofilm [2] = experiment: Effect on detachment of S. mutans biofilm; settings: pre-formed 48 h S. mutans biofilm, 30 min exposure
Description: Further to the results described above, the effect of Magnolia Bark Extract on biofilm formation and removal was compared with different herbal and natural ingredients. Comparative testing was performed using green tea extract, Oolong tea extract, Licorice, and Magnolia Bark Extract. The comparative testing included determining the solubility in water, ethanol, water:ethanol mixtures and other solvents (for example, Tween in water), MIC for growth of S. mutans, MIC for formation of S. mutans biofilm in 96-well plates, and the effect on detachment of S. mutans biofilm. To further evaluate the effect on S. mutans biofilm detachment, sterile 96-well microtiter plates were used where each well was inoculated with S. mutans (5×10^6 CFU/ml), growth medium (BHI supplemented with 0.5% sucrose), and incubated at 37° C. under aerobic condition for biofilm formation. After 48 hours, the non-attached supernatant was aspirated and serially diluted. […] After 30 min, the supernatant was aspirated from wells and the biofilm remaining after treatment was dissolved in 200 μl 1N NaOH, and quantitated at 660 nm using the plate reader. […] If detachment of the biofilm by action of the test compounds occurred, the spectrophotometric absorbance or optical density (OD) should show a decrease compared to the non-treated control.

S. mutans biofilm [3] = experiment: MIC for formation of S. mutans biofilm in 96-well plates; settings: BHI with 0.5% sucrose, 48 h, attached biofilm OD 660 nm
Description: (§2) Further to the results described above, the effect of Magnolia Bark Extract on biofilm formation and removal was compared with different herbal and natural ingredients. Comparative testing was performed using green tea extract, Oolong tea extract, Licorice, and Magnolia Bark Extract. The comparative testing included determining the solubility in water, ethanol, water:ethanol mixtures and other solvents (for example, Tween in water), MIC for growth of S. mutans, MIC for formation of S. mutans biofilm in 96-well plates, and the effect on detachment of S. mutans biofilm. To further evaluate the effect on S. mutans biofilm formation, 96-well microtiter plates were used. Each well contained S. mutans (5×10^6 CFU/ml), and was serially diluted with test compounds and growth medium (brain heart infusion broth (BHI) with 0.5% sucrose). The controls included inoculated growth medium without test compounds. All plates were incubated at 37° C. under aerobic condition with growth estimated spectrophotometrically (660 nm) after 48 h using a microtiter plate reader. Then, the supernatant containing unattached cells was removed from each wells by aspiration, the attached biofilm mass was dissolved with 200 μl 1 N NaOH and the optical density was measured at 660 nm using the microtiter plate reader. Chlorhexidine (40 μg/ml) was used as a positive control.

Porphyromonas gingivalis [4] = experiment: Minimum-Bactericidal-Concentrations (MBC), plating on blood agar; settings: kills at least 99.9% of initial inoculum
Description: To evaluate the effectiveness of Magnolia Bark Extract, in vitro tests were conducted with three subgingival plaque bacteria associated with oral malodor. The Minimum-Inhibitory-Concentrations (MIC) study protocol is as follows. Chlorhexidine was used as a positive control and sterile water was used as a negative control. Menthol and Tween 80 was used as a solvent for Magnolia Bark Extract. Tween 80 is the common name for Polysorbate 80. Ninety-six-well microtiter plates were used for this study. Each well contained 5×10^5 colony forming units/ml of bacteria, serially diluted agents and bacterial growth medium. All bacterial cultures were incubated at 37° C. and stationary. Bacterial growth was estimated spectrophotometrically at 660 nm, after 48 hours. […] The Minimum-Bactericidal-Concentrations (MBC) were determined using the 96-well microtiter plate serial dilutions as described above for MIC studies. Serial dilutions of cultures in wells showing no visible growth were performed and 10 microliters of culture were plated in triplicate on blood agar plates. Viable colonies were scored after incubation of the plates for 48 hours at 37° C. For each test bacterium, the number of colony forming units/ml (CFU/ml) was determined in the initial inoculum. The MBC was defined as the lowest concentration of a test compound that killed at least 99.9% of the cells present in the initial inoculum.

Fusobacterium nucleatum [5] = experiment: as above; settings: kills at least 99.9% of initial inoculum
[6] = test system: bacteria from freshly-collected stimulated whole saliva; experiment: Mixed culture saliva biofilm on saliva-coated hydroxyapatite discs, timed exposure to actives
Description: Although useful to show the comparative effect of Magnolia Bark Extract on biofilm formation and MIC growth, the foregoing test procedure may not effectively mimic the in vivo exposure of a confectionary composition such as a pressed tablet to a developing plaque biofilm. In an in vivo situation, the active could be exposed to the plaque for a defined period of time at a set frequency (for example, for 5 minutes, three times a day). Therefore, a series of comparative experiments were conducted to mimic the in vivo use of potential active ingredients. To perform the tests the saliva compositions listed below in Tables 2 and 3 were prepared. A mixed culture system that utilizes the bacteria from freshly-collected stimulated whole saliva was used. Saliva cell pellets were used to inoculate saliva-coated hydroxyapatite (S-HA) discs. The discs were placed in 24-well cell culture plates and incubated for up to 3 days. Biofilms were exposed to actives on days 2 and 3 (starting at 18 hours), and quantified on day 4. The number of bacteria was determined by spectrophotometric absorbance or optical density (OD) at 600 nm. The five phases of the experiment were: pellicle formation; bacterial attachment; biofilm growth; exposure to actives; and bacterial enumeration. To form the pellicles, HA Discs were ultrasonically washed in deionized water and air-dried, then autoclaved. The discs were placed in a 24-well plate with 1 ml 50% sterile saliva (1 part sterile whole saliva: 1 part saliva buffer, filter sterilize after preparation) for 2 hours on slow agitation at room temperature. The saliva was suctioned and then the discs were transferred to fresh wells for bacterial attachment. To form the biofilms, the bacterial suspension was removed, and the discs were transferred to fresh wells. One ml of supplemented saliva medium was added and the plate was placed in the incubator for overnight incubation and for the duration of the experiment (up to 72 hours). A stock solution of 1% Magnolia Bark Extract in 60% ethanol was prepared. Magnolia Bark Extract samples were prepared having a concentration range of 125, 250, 500, and 1000 μg/ml (ppm) in a Phosphate-Buffered-Saline (PBS) solution, where the negative control was PBS and the positive control was CHX having a concentration of 0.12%. […] One ml quantities of active ingredients and controls were placed into fresh wells, and the discs were transferred to these wells for 5 minutes. The chlorhexidine control exposure was one minute, two times a day to mimic the standard mouth-rinse procedure. The exposure to active ingredient was carried out at 8:00 AM, 12:00 and 4:00 PM. After the timed exposure, the solution was removed and the discs washed twice with PBS and then transferred to fresh medium. For some experiments, the medium used during the day was TSB (Tryptic Soy Broth) with a 50 μl 40% sterile sucrose solution added to each well (to give a 2% sucrose solution). The medium was not replaced after the mid-day exposure. After overnight incubation (day 2), discs were exposed to controls and actives. On day 3 the biofilms were again exposed to tests and controls. On day 4 the discs were removed from the medium, the medium pH was measured to obtain an indication of metabolic activity, and the discs were placed into tubes with 2.5 ml PBS, vortexed for 20 sec, and then placed into the ultrasonic bath for another 20 sec. The suspension was transferred into cuvettes and the bacterial cell density determined by OD measurements at 600 nm. To evaluate the effect of Magnolia Bark Extract in combination with the surface active agent, sodium lauryl sulfate, five active ingredient solutions were prepared using the procedures described above. […] Also, the MBE solutions were prepared to have a concentration of 500 ppm. Sodium lauryl sulfate was added to two of the Magnolia Bark Extract solutions to obtain SLS concentrations of 0.05% and 0.1% in the Magnolia Bark Extract solutions. […]

Streptococcus mutans [7] = experiment: Minimum-Bactericidal-Concentrations (MBC), plating on blood agar; settings: kills at least 99.9% of initial inoculum
S. mutans [8] = experiment: MIC for growth of S. mutans (comparative testing); settings: Streptococcus mutans, BHI with 0.5% sucrose, 48 h
Description: as §2

Fusobacterium nucleatum [9] = experiment: Minimum-Inhibitory-Concentrations (MIC) study, 96-well microtiter plates; settings: 48 hours, 37° C., turbidity at 660 nm
Description: (§3) To evaluate the effectiveness of Magnolia Bark Extract, in vitro tests were conducted with three subgingival plaque bacteria associated with oral malodor. The Minimum-Inhibitory-Concentrations (MIC) study protocol is as follows. Chlorhexidine was used as a positive control and sterile water was used as a negative control. Menthol and Tween 80 was used as a solvent for Magnolia Bark Extract. Tween 80 is the common name for Polysorbate 80. Ninety-six-well microtiter plates were used for this study. Each well contained 5×10^5 colony forming units/ml of bacteria, serially diluted agents and bacterial growth medium. All bacterial cultures were incubated at 37° C. and stationary. Bacterial growth was estimated spectrophotometrically at 660 nm, after 48 hours.

Streptococcus mutans [10] = experiment: as above; settings: 48 hours, 37° C., turbidity at 660 nm
Description: as §3

Porphyromonas gingivalis [11] = experiment: as above; settings: 48 hours, 37° C., turbidity at 660 nm
Description: as §3

[12] = CHX 0.12%, one minute, two times a day, day 4
[13] = repeat experiment with SLS, CHX 0.1% (1000 ppm)
[14] = repeat experiment with SLS, SLS 1000 ppm

N=C(NCCCCCCNC(=N)NC(=N)Nc1ccc(Cl)cc1)NC(=N)Nc1ccc(Cl)cc1.O=C(O)[C@H](O)[C@@H](O)[C@H](O)[C@H](O)CO.O=C(O)[C@H](O)[C@@H](O)[C@H](O)[C@H](O)CO [Chlorhexidine gluconate, reference compound]
MIC (ppm) (incubated saliva): 2 ppm
MIC/ppm (S. mutans [1]): 2 ppm

Sucrose Distearate
MIC (ppm) (incubated saliva): >500 ppm
germ-kill efficacy in words (incubated saliva): weak or non germ-kill actives

Sucrose Stearate
MIC (ppm) (incubated saliva): >500 ppm
germ-kill efficacy in words (incubated saliva): weak or non germ-kill actives

Cocamidopropyl Betaine
germ-kill efficacy in words (incubated saliva): good germ-kill surface active agents

[H]/N=C(\N/C(=N/[H])NCCCCCCNC(=N)NC(=N)Nc1ccc(Cl)cc1)Nc1ccc(Cl)cc1 [CHX, chlorhexidine]
MIC biofilm detachment (S. mutans biofilm [2]): >10 µg/mL
MIC biofilm formation (S. mutans biofilm [3]): 2.5 µg/mL (≈ 4.95 µM)
MBC (Porphyromonas gingivalis [4]): 1.25 µg/mL (≈ 2.47 µM)
MBC (Fusobacterium nucleatum [5]): 1.25 µg/mL (≈ 2.47 µM)
% OD reduction at 600 nm compared to PBS control [6, 12]: 84%
pH of the medium (metabolic activity) [6, 12]: 8.8
% OD reduction at 600 nm [6, 13]: 94%
pH of the medium (metabolic activity) [6, 13]: 8.8
MBC (Streptococcus mutans [7]): 1.25 µg/mL (≈ 2.47 µM)
MIC (S. mutans [8]): 2.5 µg/mL (≈ 4.95 µM)
MIC (Fusobacterium nucleatum [9]): 1.25 µg/mL (≈ 2.47 µM)
MIC (Streptococcus mutans [10]): 1.25 µg/mL (≈ 2.47 µM)
MIC (Porphyromonas gingivalis [11]): 1.25 µg/mL (≈ 2.47 µM)

CCCCCCCCCCCC(=O)OCCOCCOCCOCCOCCOCCOCCOCCOCCOCCOCCOCCOCCOCCOCCOCCOCCOCCOCCOCCOCC(OCCOCCOCCOCCOCCOCCOCCOCCOCCOCCOCCOCCOCCOCCOCCOCCOCCOCCOCCOCCO)C1OCC(OCCOCCOCCOCCOCCOCCOCCOCCOCCOCCOCCOCCOCCOCCOCCOCCOCCOCCOCCOCCO)C1OCCOCCOCCOCCOCCOCCOCCOCCOCCOCCOCCOCCOCCOCCOCCOCCOCCOCCOCCOCCO (stereo not shown) [Tween 20, Polysorbate 20]
MIC (incubated saliva): > 1000 µg/mL
germ-kill efficacy in words (incubated saliva): weak or non germ-kill actives

Sodium Stearoyl Lactylate
MIC (ppm) (incubated saliva): >3000 ppm
germ-kill efficacy in words (incubated saliva): weak or non germ-kill actives

CCCCCCCCCCCCOS(=O)(=O)[O-].[Na+] [SLS, sodium lauryl sulfate]
MIC (incubated saliva): 50 µg/mL
germ-kill efficacy in words (incubated saliva): good germ-kill surface active agents
% OD reduction at 600 nm [6, 14]: 61%
pH of the medium (metabolic activity) [6, 14]: 5.7
MIC/ppm (S. mutans [1]): 100 ppm

Sodium Brasslate
MIC (ppm) (incubated saliva): 500 ppm
germ-kill efficacy in words (incubated saliva): moderate germ-kill efficacy
